# How the values were obtained:
# 3T3 cells = assay: Image-based cell counting toxicity assay; set-up: species or system mouse; conditions: free drug; attributed to >5% DMSO in the medium
# Experimental: Polymers toxicity assay in 2D. 3T3 Cells were seeded in 96 well plates at a 30% confluency (6000 cells per well) and allowed to adhere for 24 h. Polymers were purified with Sephadex G25 columns, nanoparticles were suspended in DDW and added to the wells. Untreated cells (control) were used to establish 100% viability. The effect on cell viability was measured with MTT (5 mg/ml, Glentham Life Sciences, UK).
# In-vitro toxicity and anti-tumor efficacy experiments. First, we tested the three leading copolymers for in-vitro cytotoxicity, using mouse embryonic fibroblast cells (3T3 cells) as a non-cancerous model (FIG. 12). The copolymers were purified with Sephadex G25 columns and were serially diluted in a 96-well plate seeded with the cells. We used two separate viability assays: MTT and an image-based cell counting method using automated microscopy. In the MTT assay we found no reduction in cell viability over control, even in the highest concentration of polymers (FIG. 12, upper and middle panels). […] The cells morphology was not changed following incubation with the polymers, though at higher concentrations intracellular dark vesicles could be observed, indicating cellular uptake into the endo-lysosomal pathway (FIG. 13).
# [1] = DLS size, PDI and stability of copolymer-stabilized nanoparticles (Study 2); assay type: physicochemical; conditions: nilotinib nanoparticles
# Experimental: Preparation of nanoparticles. Drugs dissolved in DMSO (Carlo Erba, 10 mg/ml) were added under slight vortex to aqueous dye solution, buffered with 0.1M sodium bicarbonate. IR783 (Sigma-Aldrich) and the polymers' concentrations were 2 mg/ml. […] If the particles were cleaned in centrifuge, the solution was sonicated using Sonics' Vibra-cell ultrasonic processor (20% amplitude, 3 seconds pulses) until homogenous.
# Characterization of nanoparticles. DLS measurements were conducted using a Zetasizer Nano ZS (Malvern Panalytical, Malvern, UK).
# [2] = Long-term stability and shelf-life of nanoparticles (size and PDI over time); assay type: physicochemical; conditions: trametinib nanoparticles with different dyes; within the first 24 hours
# Experimental: (§1) Manual preparation of nanoparticles. 100 μL of drugs dissolved in DMSO (10 mg/ml) were added under slight vortexing to 0.5 ml of 0.1 M sodium bicarbonate buffer containing 1.6 mg/ml R595 (100 μl from 10 mg/ml stock solution in 0.5 ml). For comparison with other stabilizers, the R595 was replaced with the following excipients: Pluronic F-127, sodium lauryl sulfate (SDS), carboxymethyl cellulose (CMC), α-cyclodextrin (αCD), β-cyclodextrin (βCD), βCD-SO3, and human serum albumin (HSA). All compounds were dissolved as 10 mg/ml in DDW. Further comparison of R595 with IR783/IR820 based nanoparticles was also performed in DDW. The solutions were centrifuged (30,000 g, 15 min, room temperature) and the pellet was resuspended in 1 ml of DDW. In the automation process, using the Andrew Alliance pipetting robot (Waters Corp, MA), the nanoparticles were purified using a PD-10 desalting column (Cytiva, Marlborough, MA) and 1.7 ml of eluent was collected after 2.5 ml void volume (defined by the vendor).
# Characterization of nanoparticles. Dynamic light scattering (DLS) measurements were conducted using a Zetasizer Nano ZS (Malvern Panalytical, Malvern, UK).
# KPL = assay: Cell viability assay in 2D (anti-cancer drug-screen); assay type: cell-based, mice
# Experimental: (§2) Cell viability assay in 2D. Cells were seeded in 96 well plates at a 30% confluency and allowed to adhere for 24 h. All drugs were dissolved in DMSO. Nanoparticles were suspended in DDW and were added to the wells after dilution with growth medium. Untreated cells (control) were used to establish 100% viability. The effect on cell viability was measured both with Promega® CellTiter-Glo® (CTG) and with images taken by the Lionheart followed by a cell count feature provided by the vendor (BioTeK).
# HCT116 = assay: as above; assay type: cell-based, human
# Experimental: as §2
# [3] = DLS size and PDI of drug nanoparticles with dye stabilizers (Study 1); assay type: physicochemical; conditions: for nanoparticle formation with IR783: stabilizer IR783; for nanoparticle formation with R595: stabilizer R595
# Experimental: as §1, with “For” for “Manual preparation of nanoparticles. 100 μL of drugs dissolved in DMSO (10 mg/ml) were added under slight vortexing to 0.5 ml of 0.1 M sodium bicarbonate buffer containing 1.6 mg/ml R595 (100 μl from 10 mg/ml stock solution in 0.5 ml). For”, “R595” left out, “vendor). Characterization of nanoparticles. Dynamic light scattering (DLS) measurements were conducted using a Zetasizer Nano ZS (Malvern Panalytical, Malvern, UK).” for “vendor).”
# KPL cells = conditions: mouse, in vivo, ip
# Experimental: KRAS driven lung tumor studies. Six-weeks-old female C57BL/6J mice strain were purchased from Envigo RMS. Inducing tumors in the lung was done by injecting 10^5 KPL cells suspended in 200 μl of PBS intravenously (IV) via the tail vein. […] For efficacy studies, treatments were administered biweekly for ten weeks. For safety studies, immunohistochemistry (H&E) was done on treated mice. Animals were euthanized using CO2 inhalation. Mice were housed in air-filtered laminar flow cabinets with a 12-hr light/dark cycle and food and water ad libitum.
smiles,measurement,setting,value
"CNC(=O)c1ccc(N2C(=S)N(c3ccc(C#N)c(C(F)(F)F)c3)C(=O)C2(C)C)cc1F [Free enzalutamide, enzalutamide]",toxicity in 3T3 cells,3T3 cells,slight toxicity in high concentrations
CC1(C)C(=CC=C2CCCC(C=CC3=[N+](CCCCS(=O)(=O)[O-])c4ccccc4C3(C)C)=C2Cl)N(CCCCS(=O)(=O)[O-])c2ccccc21.[Na+] [IR783],time to aggregation,[1],≤ 24 h
CC1(C)C(=CC=C2CCCC(C=CC3=[N+](CCCCS(=O)(=O)[O-])c4ccc5ccccc5c4C3(C)C)=C2Cl)N(CCCCS(=O)(=O)[O-])c2ccc3ccccc3c21.[Na+] [IR820],stabilizer comparison (size and PDI),[2],better stabilizer than IR783
CC(C)C[C@H](NC(=O)[C@H](CCc1ccccc1)NC(=O)CN1CCOCC1)C(=O)N[C@@H](Cc1ccccc1)C(=O)N[C@@H](CC(C)C)C(=O)[C@@]1(C)CO1 [carfilzomib],potency in cell viability drug-screen with 7 drugs,KPL,highest potency
same,potency in cell viability drug-screen with 7 drugs,HCT116,highest potency
CCc1c2c(nc3ccc(OC(=O)N4CCC(N5CCCCC5)CC4)cc13)-c1cc3c(c(=O)n1C2)COC(=O)[C@]3(O)CC [irinotecan],nanoparticle formation with IR783,[3],failed to form nanoparticles
same,nanoparticle formation with R595,[3],formed stable nanoparticles
COc1cc2nccc(Oc3ccc(NC(=O)NC4CC4)c(Cl)c3)c2cc1C(N)=O [lenvatinib],nanoparticle formation with IR783,[3],failed to form nanoparticles
same,nanoparticle formation with R595,[3],formed stable nanoparticles
CC(=O)Nc1cccc(-n2c(=O)n(C3CC3)c(=O)c3c(Nc4ccc(I)cc4F)n(C)c(=O)c(C)c32)c1 [trametinib],toxicity as observed with weight changes,KPL cells,no dose limiting toxicities

# — patent US20260060936A1, “INDOLIUM-BASED STABILIZERS OF HYDROPHOBIC DRUGS” (TECHNION RESEARCH & DEVELOPMENT FOUNDATION LTD., priority 2022, published 2026)
